In patent US10226460B2, “Pharmaceutically acceptable salts of pirlindole enantiomers for use in medicine” (TECNIMEDE SOCIEDADE TECNICO-MEDICINAL S.A., priority 2014, dated 2019):

Experiment: Solubility test, classical saturation shake-flask method in 0.1N HCl
Type: physicochemical
Procedure: The Solubility test performed for showing the present invention's advantages is well known in the state of the art and is based on the “Classical saturation shake-flask method”, which comprises: Agitation at 37° C. during 15 h of supersaturated solution of the solid in HCl (aq) 0.1N, followed by filtration, dilution with water and quantification by UV measurement at 267 nm wavelength.

## Cc1ccc2c(c1)c1c3n2CCNC3CCC1.Cl (racemic) [(rac)-pirlindole•HCl, 2,3,3a,4,5,6-hexahydro-1H-8-methyl-pyrazine [3,2,1-j,k]carbazole]
  Solubility category in 0.1 N HCl: slightly soluble
